From ChEMBL document CHEMBL1938312, “Design and combinatorial synthesis of a novel kinase-focused library using click chemistry-based fragment assembly” (Bioorg Med Chem Lett, 2012)
Active and inactive are the calls of the source. The rule behind the calls is not given here.

Assays:
[1] = target: Tyrosine-protein kinase CSK (Homo sapiens) (UniProt P41240); test: Inhibition of CSK at 10 uM by colorimetric analysis
[2] = target: Receptor-type tyrosine-protein kinase FLT3 (Homo sapiens) (UniProt P36888); test: Inhibition of FLT3 at 10 uM by colorimetric analysis
Chain of Receptor-type tyrosine-protein kinase FLT3 (Homo sapiens) (P36888 whole entry): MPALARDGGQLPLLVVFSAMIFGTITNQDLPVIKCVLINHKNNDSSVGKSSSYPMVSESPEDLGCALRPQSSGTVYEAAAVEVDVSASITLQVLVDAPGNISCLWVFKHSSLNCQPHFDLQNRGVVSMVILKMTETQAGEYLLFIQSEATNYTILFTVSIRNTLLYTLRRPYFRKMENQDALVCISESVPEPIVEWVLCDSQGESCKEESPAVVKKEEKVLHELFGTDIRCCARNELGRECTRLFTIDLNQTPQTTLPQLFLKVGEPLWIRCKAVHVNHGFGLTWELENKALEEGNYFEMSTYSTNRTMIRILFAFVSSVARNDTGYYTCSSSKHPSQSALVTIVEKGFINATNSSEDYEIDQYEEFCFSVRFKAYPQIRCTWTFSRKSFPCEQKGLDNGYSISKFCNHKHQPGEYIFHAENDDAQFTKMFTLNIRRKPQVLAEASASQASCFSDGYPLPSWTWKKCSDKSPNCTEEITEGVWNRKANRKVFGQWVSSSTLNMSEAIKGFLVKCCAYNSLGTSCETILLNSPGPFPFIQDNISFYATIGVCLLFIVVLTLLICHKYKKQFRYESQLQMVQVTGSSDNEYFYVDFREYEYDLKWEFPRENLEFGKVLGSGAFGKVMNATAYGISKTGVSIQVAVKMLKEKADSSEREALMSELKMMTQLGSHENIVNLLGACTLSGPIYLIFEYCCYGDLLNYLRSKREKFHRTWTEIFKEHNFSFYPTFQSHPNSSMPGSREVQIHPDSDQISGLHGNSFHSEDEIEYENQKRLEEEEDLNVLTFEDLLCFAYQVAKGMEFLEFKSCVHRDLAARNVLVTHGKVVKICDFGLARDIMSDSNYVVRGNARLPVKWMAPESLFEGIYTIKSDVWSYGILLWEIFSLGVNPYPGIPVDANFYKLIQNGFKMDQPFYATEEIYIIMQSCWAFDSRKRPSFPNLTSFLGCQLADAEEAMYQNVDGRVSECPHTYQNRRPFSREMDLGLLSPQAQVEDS

[3] = target: Hepatocyte growth factor receptor (Homo sapiens) (UniProt P08581); test: Inhibition of MET at 10 uM by colorimetric analysis
Chain of Hepatocyte growth factor receptor (Homo sapiens) (P08581 whole entry): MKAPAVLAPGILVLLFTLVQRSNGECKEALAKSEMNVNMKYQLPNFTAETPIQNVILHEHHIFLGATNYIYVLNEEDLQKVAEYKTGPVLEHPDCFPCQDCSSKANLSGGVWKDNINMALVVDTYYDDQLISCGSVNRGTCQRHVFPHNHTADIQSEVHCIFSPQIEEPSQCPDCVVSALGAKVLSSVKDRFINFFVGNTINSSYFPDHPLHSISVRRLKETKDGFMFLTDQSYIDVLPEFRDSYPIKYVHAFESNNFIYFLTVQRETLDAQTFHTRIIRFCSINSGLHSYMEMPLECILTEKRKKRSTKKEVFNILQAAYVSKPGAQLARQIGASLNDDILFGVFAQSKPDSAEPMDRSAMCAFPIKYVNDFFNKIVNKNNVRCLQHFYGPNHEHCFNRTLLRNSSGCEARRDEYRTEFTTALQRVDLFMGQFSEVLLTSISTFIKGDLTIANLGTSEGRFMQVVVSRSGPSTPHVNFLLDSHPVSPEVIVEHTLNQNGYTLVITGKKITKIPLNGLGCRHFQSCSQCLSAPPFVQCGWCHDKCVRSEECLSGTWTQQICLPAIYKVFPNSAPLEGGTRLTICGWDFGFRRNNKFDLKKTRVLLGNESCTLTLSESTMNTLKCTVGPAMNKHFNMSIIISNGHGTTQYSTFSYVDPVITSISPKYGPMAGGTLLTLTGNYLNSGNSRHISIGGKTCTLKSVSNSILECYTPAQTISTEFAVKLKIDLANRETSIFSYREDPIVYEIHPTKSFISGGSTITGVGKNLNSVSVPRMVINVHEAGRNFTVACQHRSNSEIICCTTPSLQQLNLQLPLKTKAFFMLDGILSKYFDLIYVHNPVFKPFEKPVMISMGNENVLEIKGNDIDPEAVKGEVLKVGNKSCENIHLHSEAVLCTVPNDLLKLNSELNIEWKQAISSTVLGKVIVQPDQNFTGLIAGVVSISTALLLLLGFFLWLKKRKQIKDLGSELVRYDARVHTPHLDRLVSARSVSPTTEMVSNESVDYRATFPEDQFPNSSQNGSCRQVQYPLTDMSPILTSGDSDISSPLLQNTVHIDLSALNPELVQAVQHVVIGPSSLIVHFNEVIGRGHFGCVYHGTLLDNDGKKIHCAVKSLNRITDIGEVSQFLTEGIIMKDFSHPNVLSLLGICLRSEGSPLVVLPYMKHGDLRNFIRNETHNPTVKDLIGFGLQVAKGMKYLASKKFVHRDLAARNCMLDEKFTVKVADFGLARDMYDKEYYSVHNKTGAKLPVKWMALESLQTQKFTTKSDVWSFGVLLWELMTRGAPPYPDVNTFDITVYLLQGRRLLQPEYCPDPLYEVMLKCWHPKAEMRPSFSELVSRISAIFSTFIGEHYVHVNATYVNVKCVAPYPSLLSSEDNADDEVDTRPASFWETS

[4] = target: Protein-tyrosine kinase 2-beta (Homo sapiens) (UniProt Q14289); test: Inhibition of PYK2 at 10 uM by colorimetric analysis
[5] = target: Proto-oncogene tyrosine-protein kinase Src (Homo sapiens) (UniProt P12931); test: Inhibition of SRC at 10 uM by colorimetric analysis
[6] = target: Angiopoietin-1 receptor (Homo sapiens) (UniProt Q02763); test: Inhibition of TIE2 at 10 uM by colorimetric analysis
Chain of Angiopoietin-1 receptor (Homo sapiens) (Q02763 whole entry): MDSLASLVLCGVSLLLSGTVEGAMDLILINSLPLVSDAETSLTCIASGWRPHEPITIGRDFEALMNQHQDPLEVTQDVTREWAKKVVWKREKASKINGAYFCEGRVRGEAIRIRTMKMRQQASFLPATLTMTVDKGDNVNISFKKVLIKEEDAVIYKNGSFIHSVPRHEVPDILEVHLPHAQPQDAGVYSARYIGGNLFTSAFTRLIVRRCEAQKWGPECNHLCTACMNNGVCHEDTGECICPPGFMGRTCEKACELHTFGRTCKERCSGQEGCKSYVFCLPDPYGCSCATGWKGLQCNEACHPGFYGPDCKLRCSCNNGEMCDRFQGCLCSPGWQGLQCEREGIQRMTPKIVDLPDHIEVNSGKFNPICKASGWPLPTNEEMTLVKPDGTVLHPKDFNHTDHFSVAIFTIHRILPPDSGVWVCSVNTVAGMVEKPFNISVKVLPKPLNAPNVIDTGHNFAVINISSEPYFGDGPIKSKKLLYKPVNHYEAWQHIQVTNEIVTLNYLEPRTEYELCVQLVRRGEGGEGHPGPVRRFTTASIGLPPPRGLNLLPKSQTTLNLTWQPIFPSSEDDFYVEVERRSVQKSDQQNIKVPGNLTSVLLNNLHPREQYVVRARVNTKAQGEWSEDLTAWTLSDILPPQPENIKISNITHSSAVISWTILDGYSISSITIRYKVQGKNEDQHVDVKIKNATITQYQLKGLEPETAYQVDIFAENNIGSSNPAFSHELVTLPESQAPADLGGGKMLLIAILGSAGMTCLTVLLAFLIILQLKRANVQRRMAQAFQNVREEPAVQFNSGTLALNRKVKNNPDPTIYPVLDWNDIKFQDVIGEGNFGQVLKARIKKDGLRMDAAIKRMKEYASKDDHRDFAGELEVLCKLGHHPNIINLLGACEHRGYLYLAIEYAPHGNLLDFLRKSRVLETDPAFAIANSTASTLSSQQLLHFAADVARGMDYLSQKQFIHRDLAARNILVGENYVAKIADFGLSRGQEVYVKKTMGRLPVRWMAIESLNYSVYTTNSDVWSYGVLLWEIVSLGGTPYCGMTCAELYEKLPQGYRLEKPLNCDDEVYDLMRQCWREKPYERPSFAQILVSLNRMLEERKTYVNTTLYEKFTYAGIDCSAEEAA

[7] = target: T1, Tyrosine-protein kinase receptor TYRO3 (Homo sapiens) (UniProt Q06418); test: Inhibition of TYRO3 at 10 uM by colorimetric analysis
T1 sequence (whole entry): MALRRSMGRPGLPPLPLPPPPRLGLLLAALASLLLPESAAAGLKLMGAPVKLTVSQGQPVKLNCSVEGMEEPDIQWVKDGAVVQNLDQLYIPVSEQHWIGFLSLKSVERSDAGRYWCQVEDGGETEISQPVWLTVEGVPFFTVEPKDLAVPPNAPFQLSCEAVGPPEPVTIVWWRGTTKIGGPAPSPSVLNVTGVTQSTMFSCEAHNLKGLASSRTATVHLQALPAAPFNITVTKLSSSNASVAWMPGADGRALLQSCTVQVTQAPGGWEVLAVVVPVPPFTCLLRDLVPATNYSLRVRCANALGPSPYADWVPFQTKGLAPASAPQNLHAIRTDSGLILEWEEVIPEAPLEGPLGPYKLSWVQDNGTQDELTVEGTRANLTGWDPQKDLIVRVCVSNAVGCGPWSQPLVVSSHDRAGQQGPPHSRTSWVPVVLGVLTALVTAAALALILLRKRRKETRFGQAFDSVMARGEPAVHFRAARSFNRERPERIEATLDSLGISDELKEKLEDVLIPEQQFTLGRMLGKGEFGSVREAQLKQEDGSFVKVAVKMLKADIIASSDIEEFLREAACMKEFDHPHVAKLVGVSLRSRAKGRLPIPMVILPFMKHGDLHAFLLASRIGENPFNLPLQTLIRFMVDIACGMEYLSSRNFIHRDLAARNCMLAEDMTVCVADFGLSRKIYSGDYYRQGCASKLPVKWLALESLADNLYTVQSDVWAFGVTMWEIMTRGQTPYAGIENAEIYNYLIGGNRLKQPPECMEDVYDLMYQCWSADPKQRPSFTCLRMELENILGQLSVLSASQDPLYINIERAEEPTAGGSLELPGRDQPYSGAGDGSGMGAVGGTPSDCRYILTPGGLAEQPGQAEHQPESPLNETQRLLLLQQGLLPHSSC

[8] = target: T2, 5'-AMP-activated protein kinase subunit beta-1 (Homo sapiens) (UniProt Q9Y478); test: Inhibition of AMPKbeta1 at 10 uM by colorimetric analysis
T2 sequence (whole entry): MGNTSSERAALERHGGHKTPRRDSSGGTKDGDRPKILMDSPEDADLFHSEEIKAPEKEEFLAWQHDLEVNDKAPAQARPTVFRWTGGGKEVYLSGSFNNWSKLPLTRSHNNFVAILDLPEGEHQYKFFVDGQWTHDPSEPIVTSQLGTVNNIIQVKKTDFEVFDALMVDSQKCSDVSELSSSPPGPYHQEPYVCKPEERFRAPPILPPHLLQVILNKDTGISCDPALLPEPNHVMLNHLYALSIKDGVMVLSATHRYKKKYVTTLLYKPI

[9] = target: T3, Calcium/calmodulin-dependent protein kinase type IV (Homo sapiens) (UniProt Q16566); test: Inhibition of CaMK4 at 10 uM by colorimetric analysis
T3 sequence (whole entry): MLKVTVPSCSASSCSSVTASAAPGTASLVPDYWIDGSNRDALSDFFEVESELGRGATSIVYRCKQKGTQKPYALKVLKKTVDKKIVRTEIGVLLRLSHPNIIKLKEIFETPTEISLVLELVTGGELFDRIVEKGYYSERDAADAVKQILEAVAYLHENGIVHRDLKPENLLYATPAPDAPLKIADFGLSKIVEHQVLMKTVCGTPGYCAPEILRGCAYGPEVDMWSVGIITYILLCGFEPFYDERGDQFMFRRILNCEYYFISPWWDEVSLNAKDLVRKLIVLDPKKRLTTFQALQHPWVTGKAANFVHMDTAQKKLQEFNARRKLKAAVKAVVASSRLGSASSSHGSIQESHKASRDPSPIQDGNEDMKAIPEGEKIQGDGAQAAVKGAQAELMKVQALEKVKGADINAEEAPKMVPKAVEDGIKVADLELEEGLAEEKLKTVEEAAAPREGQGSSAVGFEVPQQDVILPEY

[10] = target: Cyclin-dependent kinase 2/cyclin A (Homo sapiens) (UniProt P24941+P20248+P78396); test: Inhibition of CDK2/CycA2 at 10 uM by colorimetric analysis; assay type: protein-complex assay
[11] = target: Dual specificity tyrosine-phosphorylation-regulated kinase 1B (Homo sapiens) (UniProt Q9Y463); test: Inhibition of DYRK1B at 10 uM by colorimetric analysis
Chain of Dual specificity tyrosine-phosphorylation-regulated kinase 1B (Homo sapiens) (Q9Y463 whole entry, looked up): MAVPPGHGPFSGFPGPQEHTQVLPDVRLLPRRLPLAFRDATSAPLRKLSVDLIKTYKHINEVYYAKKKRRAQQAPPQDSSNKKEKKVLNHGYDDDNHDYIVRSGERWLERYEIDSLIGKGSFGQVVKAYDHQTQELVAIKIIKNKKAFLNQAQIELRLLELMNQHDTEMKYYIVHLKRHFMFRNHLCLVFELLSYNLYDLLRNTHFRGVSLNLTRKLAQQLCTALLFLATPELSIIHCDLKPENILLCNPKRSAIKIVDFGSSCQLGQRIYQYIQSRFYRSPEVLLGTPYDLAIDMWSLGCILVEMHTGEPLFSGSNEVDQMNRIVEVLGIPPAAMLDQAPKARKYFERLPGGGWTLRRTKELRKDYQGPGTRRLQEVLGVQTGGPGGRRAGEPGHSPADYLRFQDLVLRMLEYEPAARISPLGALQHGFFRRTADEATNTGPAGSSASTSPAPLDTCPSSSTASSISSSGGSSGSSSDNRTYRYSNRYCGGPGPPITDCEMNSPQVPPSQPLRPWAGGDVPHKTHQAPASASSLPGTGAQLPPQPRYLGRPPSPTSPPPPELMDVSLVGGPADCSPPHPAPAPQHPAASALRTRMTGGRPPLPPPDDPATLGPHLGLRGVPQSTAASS

[12] = target: Mitogen-activated protein kinase 1 (Homo sapiens) (UniProt P28482); test: Inhibition of Erk2 at 10 uM by colorimetric analysis
Chain of Mitogen-activated protein kinase 1 (Homo sapiens) (P28482 whole entry): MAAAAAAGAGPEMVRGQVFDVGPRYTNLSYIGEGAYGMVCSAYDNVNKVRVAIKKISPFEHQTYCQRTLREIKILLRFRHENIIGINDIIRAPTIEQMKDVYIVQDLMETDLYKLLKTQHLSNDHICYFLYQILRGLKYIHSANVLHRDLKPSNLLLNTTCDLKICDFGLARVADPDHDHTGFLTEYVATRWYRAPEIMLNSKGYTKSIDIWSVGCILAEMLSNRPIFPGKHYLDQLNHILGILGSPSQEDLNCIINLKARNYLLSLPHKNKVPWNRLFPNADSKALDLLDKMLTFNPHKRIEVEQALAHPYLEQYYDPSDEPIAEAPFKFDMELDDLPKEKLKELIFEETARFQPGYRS

[13] = target: T4, Interleukin-1 receptor-associated kinase 4 (Homo sapiens) (UniProt Q9NWZ3); test: Inhibition of IRAK4 at 10 uM by colorimetric analysis
T4 sequence (whole entry): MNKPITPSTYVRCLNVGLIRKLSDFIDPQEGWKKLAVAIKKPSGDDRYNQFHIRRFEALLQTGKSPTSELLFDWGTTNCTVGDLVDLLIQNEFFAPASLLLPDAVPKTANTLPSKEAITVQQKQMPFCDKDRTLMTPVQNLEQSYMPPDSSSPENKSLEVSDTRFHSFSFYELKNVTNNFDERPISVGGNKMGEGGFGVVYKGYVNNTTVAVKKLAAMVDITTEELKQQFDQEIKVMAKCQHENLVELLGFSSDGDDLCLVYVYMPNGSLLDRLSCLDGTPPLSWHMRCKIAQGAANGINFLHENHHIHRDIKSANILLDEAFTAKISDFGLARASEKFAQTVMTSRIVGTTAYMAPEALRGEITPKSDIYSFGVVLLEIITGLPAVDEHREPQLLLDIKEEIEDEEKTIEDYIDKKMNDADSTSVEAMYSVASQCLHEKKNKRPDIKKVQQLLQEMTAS

[14] = target: MAP kinase-activated protein kinase 2 (Homo sapiens) (UniProt P49137); test: Inhibition of MAPKAPK2 at 10 uM by colorimetric analysis
Chain of MAP kinase-activated protein kinase 2 (Homo sapiens) (P49137 whole entry, looked up): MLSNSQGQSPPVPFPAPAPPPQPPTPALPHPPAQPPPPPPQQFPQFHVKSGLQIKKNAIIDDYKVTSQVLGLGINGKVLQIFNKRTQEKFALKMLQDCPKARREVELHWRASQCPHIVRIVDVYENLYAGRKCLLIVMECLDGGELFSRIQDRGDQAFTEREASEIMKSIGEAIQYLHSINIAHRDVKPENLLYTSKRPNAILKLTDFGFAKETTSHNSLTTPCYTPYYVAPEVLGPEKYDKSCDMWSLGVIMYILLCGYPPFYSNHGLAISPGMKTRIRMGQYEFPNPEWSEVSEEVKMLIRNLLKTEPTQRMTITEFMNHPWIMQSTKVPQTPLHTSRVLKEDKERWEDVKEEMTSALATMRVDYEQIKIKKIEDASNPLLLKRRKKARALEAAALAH

| inhibition [1] | inhibition [2] | inhibition [3] | inhibition [4] | inhibition [5] | inhibition [6] | inhibition [7] | inhibition [8] | inhibition [9] | inhibition [10] | inhibition [11] | inhibition [12] | inhibition [13] | inhibition [14] | Structure (SMILES) |
| --- | --- | --- | --- | --- | --- | --- | --- | --- | --- | --- | --- | --- | --- | --- |
| inactive | Active | inactive | inactive | inactive | inactive | inactive | Active | Active | Active | Active | Active | Active | Active | Clc1cccc(-n2nncc2-c2ccncc2)c1 |
| inactive | Active | inactive | inactive | inactive | inactive | inactive | Active | Active | Active | Active | Active | Active | Active | Clc1ccc(-n2nncc2-c2ccncc2)cc1 |
| inactive | Active | inactive | inactive | inactive | inactive | inactive | Active | Active | Active | Active | Active | Active | Active | Clc1cccc(-n2cc(-c3ccncc3)nn2)c1 |
| inactive | Active | inactive | inactive | inactive | inactive | inactive | Active | Active | Active | Active | Active | Active | Active | Clc1ccc(-n2cc(-c3ccncc3)nn2)cc1 |
